# Data taken from ChEMBL document CHEMBL1201862, “PubChem BioAssay data set” (2004).
# Activity calls are given as the source filed them.
# Key:
# [1] = molecular target: T1, Short transient receptor potential channel 4 (Mus musculus, UniProt Q9QUQ5); assay: mouse TRPC4 channel activators, dose response, cell-based, HEK293 TRPC4/mu-opioid, Fluo-4 calcium (AID 434937); type: functional
# T1 sequence (Q9QUQ5 whole entry): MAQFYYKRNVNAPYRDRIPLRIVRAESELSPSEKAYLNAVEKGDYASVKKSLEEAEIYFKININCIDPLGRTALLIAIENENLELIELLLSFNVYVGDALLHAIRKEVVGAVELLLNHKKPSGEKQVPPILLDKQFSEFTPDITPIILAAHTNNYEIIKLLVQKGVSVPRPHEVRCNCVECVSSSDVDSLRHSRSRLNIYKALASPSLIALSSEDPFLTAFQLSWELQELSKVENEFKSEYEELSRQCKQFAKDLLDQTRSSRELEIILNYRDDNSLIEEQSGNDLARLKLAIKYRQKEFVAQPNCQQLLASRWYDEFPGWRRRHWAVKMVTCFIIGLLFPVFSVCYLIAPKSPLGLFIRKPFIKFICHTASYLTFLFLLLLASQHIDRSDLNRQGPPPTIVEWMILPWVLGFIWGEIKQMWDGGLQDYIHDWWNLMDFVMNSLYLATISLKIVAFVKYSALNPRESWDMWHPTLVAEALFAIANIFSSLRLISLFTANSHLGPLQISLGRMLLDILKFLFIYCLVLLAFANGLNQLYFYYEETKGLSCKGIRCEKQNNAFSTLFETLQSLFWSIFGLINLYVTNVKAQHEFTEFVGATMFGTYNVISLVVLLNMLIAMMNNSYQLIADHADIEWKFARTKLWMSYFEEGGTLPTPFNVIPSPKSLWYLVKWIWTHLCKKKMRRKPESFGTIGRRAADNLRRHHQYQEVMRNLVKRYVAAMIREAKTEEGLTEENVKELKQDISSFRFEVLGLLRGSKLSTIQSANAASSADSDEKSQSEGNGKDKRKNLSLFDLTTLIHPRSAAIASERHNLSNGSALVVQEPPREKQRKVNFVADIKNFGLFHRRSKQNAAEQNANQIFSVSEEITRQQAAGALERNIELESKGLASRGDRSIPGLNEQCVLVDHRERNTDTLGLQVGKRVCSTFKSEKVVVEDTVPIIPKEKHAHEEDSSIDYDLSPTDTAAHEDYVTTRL
# [2] = molecular target: Bifunctional protein GlmU (Mycobacterium tuberculosis, UniProt P9WMN3); assay: Inhibitors of Mycobacterial Glucosamine-1-phosphate acetyl transferase (GlmU). Secondary screen.; parameters: species or system Mycobacterium tuberculosis H37Rv
# Chain of Bifunctional protein GlmU (P9WMN3 whole entry): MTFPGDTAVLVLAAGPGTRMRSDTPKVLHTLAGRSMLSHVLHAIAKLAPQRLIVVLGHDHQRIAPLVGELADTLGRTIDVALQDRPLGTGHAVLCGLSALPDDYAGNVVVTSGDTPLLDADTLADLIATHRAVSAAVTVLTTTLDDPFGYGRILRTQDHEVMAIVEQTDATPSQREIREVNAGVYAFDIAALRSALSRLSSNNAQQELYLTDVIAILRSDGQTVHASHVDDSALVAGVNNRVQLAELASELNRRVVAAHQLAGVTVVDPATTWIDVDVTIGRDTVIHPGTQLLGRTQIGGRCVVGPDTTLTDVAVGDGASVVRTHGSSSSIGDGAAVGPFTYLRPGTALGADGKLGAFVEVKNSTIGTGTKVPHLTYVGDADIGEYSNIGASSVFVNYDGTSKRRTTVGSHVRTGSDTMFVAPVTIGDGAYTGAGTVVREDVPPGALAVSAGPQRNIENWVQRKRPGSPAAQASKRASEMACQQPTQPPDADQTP
# [3] = molecular target: Probable nicotinate-nucleotide adenylyltransferase (Staphylococcus aureus (strain N315), UniProt P65502); type: functional, Staphylococcus aureus subsp. aureus N315; conditions: read-out: IC50_Mean;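 further: confirmatory dose-response retesting of NadD inhibitor hits first found in an ultra-high-throughput screen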
# [4] = inhibitors of SNCA 5'UTR-driven reporter translation, confirmation, H4 neuroglioma cells, luminescence (AID 1988); type: functional, cell-based
# [5] = molecular target: Mitochondrial peptide methionine sulfoxide reductase (Bos taurus, UniProt P54149); assay: Absorbance-based biochemical high throughput dose response assay for activators of Methionine sulfoxide reductase A (MsrA).; type: functional
# Chain of Mitochondrial peptide methionine sulfoxide reductase (P54149 whole entry): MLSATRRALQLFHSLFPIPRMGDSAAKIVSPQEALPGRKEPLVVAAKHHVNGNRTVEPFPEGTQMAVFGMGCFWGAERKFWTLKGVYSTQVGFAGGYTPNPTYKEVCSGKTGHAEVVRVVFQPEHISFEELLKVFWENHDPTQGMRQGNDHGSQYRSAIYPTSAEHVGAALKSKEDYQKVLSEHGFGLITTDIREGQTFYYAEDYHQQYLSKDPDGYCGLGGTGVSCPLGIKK
# [6] = Luminescence Cell-Based Dose Response HTS to Identify Inhibitors of 5'UTR Stem-Loop Driven Prion Protein mRNA Translation in H4 Neuroglioblastoma Cells. [Related pubchem assays: 1827 (Project Summary), 1813 (Primary HTS)]; type: functional
# [7] = molecular target: Serine/threonine-protein phosphatase (Homo sapiens, UniProt Q9BPW0); assay: PP5 phosphatase inhibitors, dose response, biochemical, fluorescence (AID 2395)
# Chain of Serine/threonine-protein phosphatase (Q9BPW0 whole entry): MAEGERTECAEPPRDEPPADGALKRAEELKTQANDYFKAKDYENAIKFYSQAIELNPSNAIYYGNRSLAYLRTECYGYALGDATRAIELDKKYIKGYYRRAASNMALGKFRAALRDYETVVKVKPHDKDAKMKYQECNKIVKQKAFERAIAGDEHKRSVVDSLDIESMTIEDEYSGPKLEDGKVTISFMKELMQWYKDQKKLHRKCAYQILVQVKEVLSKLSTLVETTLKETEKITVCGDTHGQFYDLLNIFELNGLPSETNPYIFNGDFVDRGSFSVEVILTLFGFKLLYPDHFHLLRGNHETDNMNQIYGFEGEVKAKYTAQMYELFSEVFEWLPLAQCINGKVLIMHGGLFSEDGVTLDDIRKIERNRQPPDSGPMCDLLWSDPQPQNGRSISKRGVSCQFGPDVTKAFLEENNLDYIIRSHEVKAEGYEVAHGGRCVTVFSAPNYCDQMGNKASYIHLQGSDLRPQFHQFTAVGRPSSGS
# [8] = molecular target: Serine/threonine-protein phosphatase PP1-alpha catalytic subunit (Homo sapiens, UniProt P62136); assay: PP1 phosphatase inhibitors, dose response, biochemical, fluorescence (AID 2394)
# Chain of Serine/threonine-protein phosphatase PP1-alpha catalytic subunit (P62136 whole entry): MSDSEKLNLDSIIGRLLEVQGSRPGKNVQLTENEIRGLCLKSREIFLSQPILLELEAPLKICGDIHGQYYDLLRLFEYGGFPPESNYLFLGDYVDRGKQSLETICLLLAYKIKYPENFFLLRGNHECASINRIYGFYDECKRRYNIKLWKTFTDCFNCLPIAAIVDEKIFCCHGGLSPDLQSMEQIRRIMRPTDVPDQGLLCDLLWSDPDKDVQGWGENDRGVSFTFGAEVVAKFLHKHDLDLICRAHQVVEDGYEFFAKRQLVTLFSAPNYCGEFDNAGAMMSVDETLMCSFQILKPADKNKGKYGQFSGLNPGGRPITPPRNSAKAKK
# [9] = molecular target: T2, Tyrosine-protein phosphatase non-receptor type 22 (Homo sapiens, UniProt Q9Y2R2); assay: PTPN22 phosphatase inhibition, dose response, selectivity assay for STEP inhibitor project, biochemical (AID 624241); type: functional
# T2 sequence (Q9Y2R2 whole entry): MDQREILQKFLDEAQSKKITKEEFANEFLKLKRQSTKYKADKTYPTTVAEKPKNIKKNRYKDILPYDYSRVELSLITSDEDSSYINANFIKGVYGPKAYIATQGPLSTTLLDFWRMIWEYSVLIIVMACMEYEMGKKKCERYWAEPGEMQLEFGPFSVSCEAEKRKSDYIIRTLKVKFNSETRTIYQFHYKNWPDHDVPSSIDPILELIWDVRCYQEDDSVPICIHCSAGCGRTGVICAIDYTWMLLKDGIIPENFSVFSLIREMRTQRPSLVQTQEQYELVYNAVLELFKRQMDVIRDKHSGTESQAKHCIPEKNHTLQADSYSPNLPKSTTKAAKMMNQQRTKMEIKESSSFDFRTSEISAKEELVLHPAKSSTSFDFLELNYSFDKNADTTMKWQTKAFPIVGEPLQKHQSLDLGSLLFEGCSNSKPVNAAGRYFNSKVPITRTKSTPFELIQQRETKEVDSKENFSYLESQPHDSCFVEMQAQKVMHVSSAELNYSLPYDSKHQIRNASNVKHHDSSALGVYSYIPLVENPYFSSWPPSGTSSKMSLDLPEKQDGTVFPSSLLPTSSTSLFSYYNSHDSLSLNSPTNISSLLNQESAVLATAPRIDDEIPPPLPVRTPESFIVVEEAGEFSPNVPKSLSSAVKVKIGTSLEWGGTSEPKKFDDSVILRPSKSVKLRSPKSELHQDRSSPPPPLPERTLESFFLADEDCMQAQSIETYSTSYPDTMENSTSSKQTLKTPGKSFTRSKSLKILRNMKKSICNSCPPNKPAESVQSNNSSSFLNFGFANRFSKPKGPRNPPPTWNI
# [10] = molecular target: Dual specificity protein phosphatase 3 (Homo sapiens, UniProt P51452); assay: VHR1 phosphatase inhibitors, primary screen, biochemical, absorbance, uHTS (AID 1654)
# Chain of Dual specificity protein phosphatase 3 (P51452 whole entry): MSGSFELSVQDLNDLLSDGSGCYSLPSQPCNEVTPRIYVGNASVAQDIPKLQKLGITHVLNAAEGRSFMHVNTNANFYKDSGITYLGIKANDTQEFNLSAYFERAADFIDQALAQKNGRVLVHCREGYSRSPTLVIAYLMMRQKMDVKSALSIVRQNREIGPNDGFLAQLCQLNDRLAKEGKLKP
# [11] = molecular target: T2, Tyrosine-protein phosphatase non-receptor type 22; assay: LYP (PTPN22) phosphatase inhibitor potency, SAR follow-up, biochemical, pCAP fluorogenic substrate, fluorescence, set 3 (AID 449727); type: functional
# [12] = molecular target: Voltage-gated N-type calcium channel alpha-1B subunit/Amyloid beta A4 precursor protein-binding family A member 1 (Homo sapiens, UniProt Q00975+Q02410); type: protein assay
# Chain of Voltage-gated N-type calcium channel alpha-1B subunit/Amyloid beta A4 precursor protein-binding family A member 1 (Q00975 whole entry): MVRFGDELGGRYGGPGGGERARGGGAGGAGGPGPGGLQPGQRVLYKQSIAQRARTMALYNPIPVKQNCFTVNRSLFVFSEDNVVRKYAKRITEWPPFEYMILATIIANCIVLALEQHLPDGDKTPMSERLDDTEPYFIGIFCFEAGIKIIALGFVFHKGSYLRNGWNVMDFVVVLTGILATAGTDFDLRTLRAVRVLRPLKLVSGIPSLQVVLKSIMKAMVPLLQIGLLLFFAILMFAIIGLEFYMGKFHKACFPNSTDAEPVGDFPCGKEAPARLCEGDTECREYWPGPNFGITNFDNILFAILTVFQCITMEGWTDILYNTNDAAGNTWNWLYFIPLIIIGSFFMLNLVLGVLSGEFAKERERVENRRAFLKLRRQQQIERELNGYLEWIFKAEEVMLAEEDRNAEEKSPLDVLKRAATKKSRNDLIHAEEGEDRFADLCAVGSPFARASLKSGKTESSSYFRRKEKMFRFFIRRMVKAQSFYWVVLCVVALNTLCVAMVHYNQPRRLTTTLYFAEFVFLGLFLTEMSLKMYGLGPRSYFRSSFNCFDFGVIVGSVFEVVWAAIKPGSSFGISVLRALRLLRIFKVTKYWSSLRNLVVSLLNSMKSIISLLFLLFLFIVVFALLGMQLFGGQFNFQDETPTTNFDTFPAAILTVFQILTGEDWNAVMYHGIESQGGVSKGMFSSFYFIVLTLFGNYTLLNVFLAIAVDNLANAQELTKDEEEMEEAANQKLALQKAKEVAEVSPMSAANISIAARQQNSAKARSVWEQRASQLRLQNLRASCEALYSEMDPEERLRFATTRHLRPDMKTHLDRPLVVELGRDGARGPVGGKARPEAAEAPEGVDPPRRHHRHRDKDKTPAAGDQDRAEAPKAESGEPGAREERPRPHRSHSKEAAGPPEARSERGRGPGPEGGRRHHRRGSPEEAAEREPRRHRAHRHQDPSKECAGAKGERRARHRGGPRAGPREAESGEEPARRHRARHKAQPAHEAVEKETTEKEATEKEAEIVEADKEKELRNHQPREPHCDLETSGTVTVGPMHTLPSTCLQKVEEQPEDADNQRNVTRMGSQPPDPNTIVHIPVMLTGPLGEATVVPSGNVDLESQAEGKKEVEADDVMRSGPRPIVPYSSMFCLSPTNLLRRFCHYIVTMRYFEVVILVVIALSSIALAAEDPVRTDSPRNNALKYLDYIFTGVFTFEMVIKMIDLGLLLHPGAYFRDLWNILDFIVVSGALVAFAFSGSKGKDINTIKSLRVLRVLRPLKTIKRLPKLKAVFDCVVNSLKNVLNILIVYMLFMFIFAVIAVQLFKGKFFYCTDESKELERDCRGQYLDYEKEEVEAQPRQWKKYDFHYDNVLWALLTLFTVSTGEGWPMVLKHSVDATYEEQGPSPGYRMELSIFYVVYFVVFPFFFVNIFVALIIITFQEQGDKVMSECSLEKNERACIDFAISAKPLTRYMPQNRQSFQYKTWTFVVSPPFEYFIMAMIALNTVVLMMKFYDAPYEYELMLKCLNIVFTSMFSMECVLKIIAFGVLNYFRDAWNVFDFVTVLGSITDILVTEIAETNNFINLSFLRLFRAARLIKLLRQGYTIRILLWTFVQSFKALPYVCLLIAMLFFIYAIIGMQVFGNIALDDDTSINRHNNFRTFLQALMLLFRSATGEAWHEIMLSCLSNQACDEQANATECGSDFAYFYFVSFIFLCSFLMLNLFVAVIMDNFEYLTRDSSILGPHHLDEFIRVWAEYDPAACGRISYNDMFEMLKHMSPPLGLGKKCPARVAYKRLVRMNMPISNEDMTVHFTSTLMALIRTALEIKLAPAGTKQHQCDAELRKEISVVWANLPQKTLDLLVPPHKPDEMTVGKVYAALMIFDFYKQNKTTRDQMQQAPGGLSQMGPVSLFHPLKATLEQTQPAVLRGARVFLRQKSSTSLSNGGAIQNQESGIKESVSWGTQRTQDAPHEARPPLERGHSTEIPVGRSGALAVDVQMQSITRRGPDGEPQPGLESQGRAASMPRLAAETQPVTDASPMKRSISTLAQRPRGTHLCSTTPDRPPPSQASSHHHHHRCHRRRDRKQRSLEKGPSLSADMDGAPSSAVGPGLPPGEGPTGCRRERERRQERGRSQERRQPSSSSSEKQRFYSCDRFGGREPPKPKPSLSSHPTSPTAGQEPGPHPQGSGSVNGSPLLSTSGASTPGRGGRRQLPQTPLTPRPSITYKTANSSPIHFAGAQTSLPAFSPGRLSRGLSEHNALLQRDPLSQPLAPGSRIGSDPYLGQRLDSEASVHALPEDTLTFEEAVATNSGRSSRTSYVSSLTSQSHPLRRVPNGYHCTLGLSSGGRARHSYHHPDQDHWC
# Chain of Voltage-gated N-type calcium channel alpha-1B subunit/Amyloid beta A4 precursor protein-binding family A member 1 (Q02410 whole entry): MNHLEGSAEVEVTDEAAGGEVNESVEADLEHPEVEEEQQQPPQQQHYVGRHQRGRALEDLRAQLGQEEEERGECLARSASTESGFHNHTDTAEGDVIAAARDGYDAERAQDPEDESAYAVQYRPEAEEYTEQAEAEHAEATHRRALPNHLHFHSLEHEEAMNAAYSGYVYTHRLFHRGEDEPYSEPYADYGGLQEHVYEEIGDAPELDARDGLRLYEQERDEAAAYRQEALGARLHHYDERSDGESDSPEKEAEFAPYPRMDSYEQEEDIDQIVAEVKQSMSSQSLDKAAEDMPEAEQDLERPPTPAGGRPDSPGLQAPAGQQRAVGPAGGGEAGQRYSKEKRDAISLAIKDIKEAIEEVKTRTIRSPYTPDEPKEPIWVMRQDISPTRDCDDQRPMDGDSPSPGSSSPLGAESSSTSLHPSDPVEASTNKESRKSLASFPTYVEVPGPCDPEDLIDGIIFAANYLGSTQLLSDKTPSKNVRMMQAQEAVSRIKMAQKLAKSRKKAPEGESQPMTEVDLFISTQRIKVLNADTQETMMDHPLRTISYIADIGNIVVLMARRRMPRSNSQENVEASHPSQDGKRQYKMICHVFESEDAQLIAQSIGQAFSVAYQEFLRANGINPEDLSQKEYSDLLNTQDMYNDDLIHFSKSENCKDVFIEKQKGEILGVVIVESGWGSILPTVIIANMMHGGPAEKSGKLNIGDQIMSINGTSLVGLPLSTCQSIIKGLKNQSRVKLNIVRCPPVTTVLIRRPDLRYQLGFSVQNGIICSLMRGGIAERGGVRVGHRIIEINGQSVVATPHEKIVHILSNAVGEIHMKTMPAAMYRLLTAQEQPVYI
# [13] = molecular target: T2, Tyrosine-protein phosphatase non-receptor type 22; assay: PubChem AID 2135
# [14] = molecular target: T3, Glutathione-S-transferase (Schistosoma japonicum, UniProt Q26513); assay: biotin-GST/anti-GST TR-FRET signal inhibitors, dose response, artefact control for Vif-APOBEC3G degradation inhibitor project, biochemical (AID 1117362); type: functional
# T3 sequence (Q26513 whole entry): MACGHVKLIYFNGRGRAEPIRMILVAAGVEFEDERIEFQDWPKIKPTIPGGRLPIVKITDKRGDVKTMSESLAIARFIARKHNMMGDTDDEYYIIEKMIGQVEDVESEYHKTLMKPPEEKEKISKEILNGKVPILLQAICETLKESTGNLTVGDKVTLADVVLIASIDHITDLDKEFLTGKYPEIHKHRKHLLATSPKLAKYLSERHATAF
smiles,measurement,setting,value
CCN1/C(=C/c2ccc3cc(C)ccc3[n+]2CC)Sc2cc(C)c(C)cc21,EC50,[1],11.9 µM (active)
Nc1ccc2nc3c(O)nc(S)nc3nc2c1,IC50,[2],14 µM (active)
same,IC50,[3],17 µM (active)
Cc1oc2c(c1C(=O)c1ccccc1)C(=O)C(=O)c1ccccc1-2,EC50,[4],8.93 µM (active)
same,EC50,[5],63.2 µM (inactive)
same,EC50,[6],> 120 µM (not active)
O=C1CCCC2=C1C1(O)C(=O)c3ccccc3C1(O)O2 (centres undefined),IC50,[7],> 0.828 µM (active)
same,IC50,[8],> 67 µM (not active)
CSc1ccc(C=NNc2ccc(S(=O)(=O)Nc3ccccc3C(=O)O)cc2[N+](=O)[O-])cc1,IC50,[9],2.82 µM (active)
O=C(O)COc1ccc(/C=N/NC(=O)c2ccc(-c3csc(Nc4ccc(Cl)cc4)n3)cc2)cc1,IC50,[10],2.52 µM (active)
same,IC50,[11],0.369 µM (active)
same,IC50,[12],> 50 µM (inactive)
same,IC50,[13],0.113 µM (active)
COc1cc(NCCCNC(C)C)c2nccc(C)c2c1,IC50,[14],28.7 µM (active)
